One test deals with TDP-43-expressing yeast. As to the kind of experiment: Yeast TDP-43 model viability (resazurin-reduction endpoint). It is filed as cell-based. The settings on record: 2-fold serial dilution applied for 24 hours. The method, then:
(§1) (FIG. 1A) Structure of the Erg11 inhibitor and anti-fungal, fluconazole. […] A 2-fold serial dilution of fluconazole was applied to TDP-43-expressing yeast for 24 hours prior to analysis. (FIG. 1C) Wild-type yeast cultures were treated with fluconazole for eight hours prior to HPLC analysis for lanosterol and ergosterol. Data are expressed as the area under the curve (AUC) normalized to cell mass based on optical density of cultures at 600 nm.
The toxic gain of function features of TDP-43 can be faithfully recapitulated in the simple model organism, budding yeast, where the protein also localizes to stress granules. […] The yeast model thus provides a robust cell-based screening platform for small molecules capable of ameliorating toxicity. To validate compounds from such phenotypic screens, it is imperative to test compounds in a mammalian neuronal context. In an effort to develop TDP-43-related mammalian models of neuron loss that occurs in ALS and FTD, primary cultures of rat cortical neurons were transfected with human wild type or Q331K mutant TDP-43. These cells were compared to cells which received an empty expression vector control. […] In the experiments described in this example, this model system is used to interrogate new therapeutic approaches to ameliorate TDP-43 toxicity.
Fluconazole is an antifungal known to inhibit Erg11, the yeast lanosterol 14-alpha demethylase (FIG. 1B). […]

The next test concerns Erg11. As to the kind of experiment: HPLC analysis of lanosterol and ergosterol in wild-type yeast cultures. It is filed as cell-based. As to conditions: wild-type yeast treated for eight hours. The method, then: as §1
Fluconazole is an antifungal known to inhibit Erg11, the yeast lanosterol 14-alpha demethylase (FIG. 1B). […] CYP51A1 has also been known as lanosterol 14-alpha demethylase, which describes its function in removing the 14-alpha-methyl group from lanosterol to generate 4,4-dimethylcholesta-8(9), 14, 24-trien-3β-ol, which is a critical step in the cholesterol biosynthetic pathway.

With `OC(Cn1cncn1)(Cn1cncn1)c1ccc(F)cc1F` [fluconazole], the “viability of TDP-43-expressing yeast” value is given as “rescues viability” in the test with TDP-43-expressing yeast and “restored viability” in the test with TDP-43-expressing yeast (listed as Fluconazole). The “ergosterol (AUC normalized to cell mass)” value with Erg11 is recorded as “reduces ergosterol”. Moreover, the “lanosterol (AUC normalized to cell mass)” value in the test on Erg11 is “increase in the Erg11 substrate, lanosterol”.

Values taken from patent US20230339890A1, “AMINO ALCOHOL COMPOUNDS AND USES THEREOF” (Kineta, Inc., priority 2020, published 2023).
